Measured values taken from US6001872A, “Water soluble transplatinum complexes with anti-cancer activity and method of using same” (priority 1999, dated 1999).
“Also recorded” adds a separate entry of the source.

Assays:
[1] = tested on: murine L1210 cisplatin-sensitive leukemia cells; test: Cytotoxicity: cell-growth inhibition in murine L1210 cisplatin-sensitive leukemia cells, 72-hour drug incubation; type: cell-based; conditions: for IC50: 72-hour drug incubation, read-out: ID50 (50% inhibitory drug concentration); for cytotoxicity compared with cisplatin: in vitro
Method: Studies were performed in vitro to assess the cytotoxicity of trans-[Pt(PyAc-N,O)Cl(NH3)] in comparison to several relevant Pt compounds. Cytotoxicity was monitored by cell-growth inhibition experiments in murine L1210 cisplatin-sensitive leukemia cells. The L1210 cell line has been used as a prognosticator of human antitumor activity for some time [Wolpert-DeFilippes, M. K., "Antitumor Activity of Cisplatin Analogs" in: Cisplatin. Current Status and Developments, Prestayko, A. W., Crooke, S. T., and Carter, S. K., eds, Academic Press, (London) 1980, pp. 183-192.]. A separate, non-treated culture was used as a control for these investigations.

[2] = presence of a planar ligand, trans geometry; cited from earlier work
[3] = in vivo; cited from earlier work
[4] = N,O-chelate formation (displacement of chloride by carboxylate, complex 1 to complex 2); type: physicochemical
Source text: The details of this synthesis may be found in Example 1 below. The preparation utilizes the anionic N,O-chelating ligand pyridine-2-yl-acetate (PyAc), which introduces a carboxylate donor cis to the nitrogen atom of the planar ligand. The bidentate ligand was used in its O-protected form, i.e., the corresponding methylester (PyAcMe). Formation of the N,O-chelate was achieved via the intermediate dichloro form, trans-[PtCl2 (NH3)(PyAcH)].H2 O (complex 1.H2 O) at neutral pH.
For the purposes of this invention, it should be further noted that the form for administration to patients may be either complex 1 or complex 2, since the former would spontaneously form the N-O chelate under physiological conditions.

| Compound | IC50 [1] [nM] | cytotoxicity compared with cisplatin [1] | also measured |
| --- | --- | --- | --- |
| N.N.[Cl][Pt][Cl] [cisplatin, cis-[PtCl2 (NH3)2]] | 430 | – | – |
| N.[Cl][Pt][Cl].c1ccc2ncccc2c1 [trans-[PtCl2 (NH3)(quinoline)]] | – | – | in vitro cytotoxicity, effect of planar ligand [2]: dramatically enhances the in vitro cytotoxicity |
| N.N.[Cl][Pt+2][Cl] [transplatin, trans-[PtCl2 (NH3)2]] | 14000 | inactive | therapeutic/biological activity [3]: biologically inactive; also recorded: therapeutically inactive |
| cis-[Pt(PyAc-N,O)Cl(NH3)] | > 20000 | inactive | cytotoxicity compared with cisplatin ([1]; listed as cis-isomer): must be considered inactive |
| trans-[Pt(PyAc-N,O)Cl(NH3)] [Complex 2] | 880 | comparably cytotoxic to cisplatin itself | solubility in water: 4 mmol 1-1 |
| trans-[PtCl2 (NH3)(PyAcH)] [Complex 1] | – | – | displacement of chloride by carboxylate ([4]; e.g. in 10^-2 M HCl): remarkably facile; formation of complex 2 from complex 1 ([4]; pH values greater than 2): readily formed |
